From publication PMC13376213, “Systematic discovery of motif-based interactions of the auxiliary domains of USP family deubiquitinases” (Nature Communications, 2026) come the findings set out here.

For assay [1], the system named is FLAG-USP33. Description: IP-MS of FLAG-USP33 and variants vs empty vector. It counts as cell-based, human. How it is done: For transfection, 1x10^6 HEK293 cells were seeded in 10 cm dishes with DMEM, 10% FBS, 1% L-G (without antibiotic) medium, incubated at 37 °C, with 5 % CO2 for 24 h. Cells were transfected with a transfection mix containing […] of Opti-MEM (Thermo Fisher Scientific), 20 μL of PEI stock (1 mg/mL) and […] of the desired cDNA. For co-transfection, 2.5 μg of DNA of each plasmid was used. The mix was vortexed for 15 s and incubated at room temperature for 15–20 min. The transfection mix was added to the dish and gently mixed. Plates were incubated at 37 °C for 36–48 h before harvesting. For USP33 constructs, 5 μM Bortezomib (proteasome inhibitor) was added 4 hours before harvesting the cells.
FLAG fusion proteins were immunoprecipitated from HEK293 cells transfected with plasmids encoding the protein of interest using the anti-FLAG M2 affinity gel from Sigma-Aldrich. Cell pellets were lysed with 100–200 μL/per dish lysis buffer (Pierce RIPA buffer, 1X protease inhibitor (Roche), 50 unit/μL of Benzonase Nuclease) rotating at 4 °C for 30–45 min. […] The cell lysate was clarified by centrifugation at 17,000 x g, at 4 °C for 12 min, and the supernatant was transferred to a clean, pre-chilled low-binding Eppendorf tube. […] The IP samples were centrifuged at 6500 x g at 4 °C for 30 s. The supernatant containing the unbound proteins was transferred to a clean tube. The resin was washed three times with 500 μL of TBS, centrifuged at 6500 x g at 4 °C for 30 s. The bound FLAG fusion protein was eluted with 100 μL of 150 ng/μL 3X FLAG peptide (Sigma) in TBS and incubated in the cold room for 1 h or overnight. The tube was centrifuged at 6500 x g at 4 °C for 30 s; the eluted proteins were transferred to a clean tube. The eluted proteins were prepared for analysis by western blot or Mass Spectrometry.
Immunoprecipitation (IP) was carried out as described above; four technical replicates of each IP condition were performed, and the empty vector was used as a negative control. The eluted protein was processed following the Strap-micro protocol (Protifi). The IP elution containing 1–100 μg protein was 1:1 mixed with 2X lysis buffer (10% SDS, 100 mM TEAB pH 8.5). […] Samples were vortexed, mixed with 165 μL of 100 mM TEAB in 90% methanol, and passed through an S-Trap micro column at 4000 g for 30 s to trap the proteins. The column was washed with 150 μL of 100 mM TEAB in 90% methanol (at 4,000 x g for 30 seconds) three times. The S-Trap column was centrifuged again and transferred to a clean 2 mL tube for digestion with 20 μL of digestion buffer (1 μg trypsin per 10 μg sample in 50 mM TEAB), at 37 °C overnight in a thermomixer without shaking. The digested peptides were eluted with […] of 50 mM TEAB in water, […] of 0.2 % formic acid in water, and […] of 50 % acetonitrile in water, centrifuging at 4000 x g for 1 min each time. The three elutions were pooled in a low-binding tube, placed on dry ice until frozen, dried in a SpeedVac vacuum (Thermo Scientific), and proceeded with the LCMS analysis.
Eluted peptides were resuspended in water supplemented with 0.015% dodecyl maltoside and 0.1% formic acid and were injected on a Vanquish Neo UHPLC System operating in trap and elute mode coupled to an Orbitrap Astral Mass Spectrometer (Thermo Fisher Scientific). […] Eluted peptides were analyzed using data-independent acquisition mode on the mass spectrometer.
Peptides were searched against the Uniprot Swissprot Human database (released on 02/01/2023) supplemented with the USP20 and USP33 mutants using DiaNN (v1.9.0)[62] operating in library-free mode. Data filtering and statistical analysis were carried out in Python (v3.9.0) using the packages pandas, numpy, sklearn, scipy, rpy2, Plotnine, and Plotly and R (v4.4.3) using the package limma.
Protein groups identified with a single peptide or quantified in fewer than three replicates in at least 1 condition were filtered out. […]

In assay [2] the test system is FLAG-USP20. Nature of the assay: IP-MS of FLAG-USP20 and variants vs empty vector. It counts as cell-based, human. To be noted: IP-MS, FLAG-USP20-ΔUBP vs EV; comparison bh_2 Sample_Limma_ImpMedInt_USP20_UBP_domain/EV.
Description: For transfection, 1x10^6 HEK293 cells were seeded in 10 cm dishes with DMEM, 10% FBS, 1% L-G (without antibiotic) medium, incubated at 37 °C, with 5 % CO2 for 24 h. Cells were transfected with a transfection mix containing 970 mL of Opti-MEM (Thermo Fisher Scientific), 20 μL of PEI stock (1 mg/mL) and 5 mg of the desired cDNA. For co-transfection, 2.5 μg of DNA of each plasmid was used. The mix was vortexed for 15 s and incubated at room temperature for 15–20 min. The transfection mix was added to the dish and gently mixed. Plates were incubated at 37 °C for 36–48 h before harvesting. For USP33 constructs, 5 μM Bortezomib (proteasome inhibitor) was added 4 hours before harvesting the cells.
FLAG fusion proteins were immunoprecipitated from HEK293 cells transfected with plasmids encoding the protein of interest using the anti-FLAG M2 affinity gel from Sigma-Aldrich. […] The cell lysate was clarified by centrifugation at 17,000 x g, at 4 °C for 12 min, and the supernatant was transferred to a clean, pre-chilled low-binding Eppendorf tube. […] The IP samples were centrifuged at 6500 x g at 4 °C for 30 s. The supernatant containing the unbound proteins was transferred to a clean tube. The resin was washed three times with 500 μL of TBS, centrifuged at 6500 x g at 4 °C for 30 s. The bound FLAG fusion protein was eluted with 100 μL of 150 ng/μL 3X FLAG peptide (Sigma) in TBS and incubated in the cold room for 1 h or overnight. The tube was centrifuged at 6500 x g at 4 °C for 30 s; the eluted proteins were transferred to a clean tube. The eluted proteins were prepared for analysis by western blot or Mass Spectrometry.
Immunoprecipitation (IP) was carried out as described above; four technical replicates of each IP condition were performed, and the empty vector was used as a negative control. The eluted protein was processed following the Strap-micro protocol (Protifi). The IP elution containing 1–100 μg protein was 1:1 mixed with 2X lysis buffer (10% SDS, 100 mM TEAB pH 8.5). […] Samples were vortexed, mixed with 165 μL of 100 mM TEAB in 90% methanol, and passed through an S-Trap micro column at 4000 g for 30 s to trap the proteins. The column was washed with 150 μL of 100 mM TEAB in 90% methanol (at 4,000 x g for 30 seconds) three times. The S-Trap column was centrifuged again and transferred to a clean 2 mL tube for digestion with 20 μL of digestion buffer (1 μg trypsin per 10 μg sample in 50 mM TEAB), at 37 °C overnight in a thermomixer without shaking. The digested peptides were eluted with 40 mL of 50 mM TEAB in water, 40 mL of 0.2 % formic acid in water, and 40 mL of 50 % acetonitrile in water, centrifuging at 4000 x g for 1 min each time. The three elutions were pooled in a low-binding tube, placed on dry ice until frozen, dried in a SpeedVac vacuum (Thermo Scientific), and proceeded with the LCMS analysis.
Protein groups identified with a single peptide or quantified in fewer than three replicates in at least 1 condition were filtered out. Protein group intensities were median normalized and missing values were imputed using a Gaussian distribution centered on the median with a downshift of 1.8 and width of 0.3 (relative to the standard deviation).
The target of assay [3] is T1, USP20 zf-UBP domain (Homo sapiens, UniProt Q9Y2K6).
T1 construct: USP20_UBP; Q9Y2K6; zf-UBP; 99; 6xHis-GST (N, cleaved yes); made in house; host or cells: Escherichia coli BL21-Gold (DE3)
Description: Peptide SPOT array, USP20 zf-UBP. It counts as binding. To be noted: array of 120 peptides probed with GST-tagged zf-UBP domains of USP20 and USP33.
Description: Proteins were expressed in Escherichia coli (E.coli) BL21-Gold (DE3) bacteria. The cDNAs encoding N-terminal 6-histidine-glutathione S-transferase tagged (6xHis-GST), 6xHis-tagged or GST-tagged protein domains in pETM33, pETM11, pGEX6P1 expression vectors respectively, were obtained from Genescript or kindly provided by MRC-PPU (Suppl. Data 1) The bacteria were transformed with the plasmid and grew at 37 °C in 2YT (5 g/L NaCl, 16 g/L tryptone and 10 g/L yeast extract) supplemented with Kanamycin (30 μg/mL) until reaching an OD600 of 0.7. Protein expression was induced with 0.3 mM isopropyl β-D-1 thiogalactopyranoside (IPTG) for 18 h at 18 °C while shaking. For zinc-finger domains, 50 μM of ZnSO4 was added during expression. […] For fluorescence polarization experiments, the proteins were not eluted from the beads, and the 6xHis-GST tag was cleaved overnight on GSH Sepharose beads at 4 °C while shaking with PreScission Protease in cleavage buffer (50 mM Tris pH 7.5, 150 mM NaCl, 1 mM DTT). […] The purity and size of the proteins were analyzed by SDS-PAGE electrophoresis.
Peptides were synthesized on cellulose membranes with standard Fluoroenylmethylox-ycarbonyl (Fmoc) chemistry using a Multipep automated synthesizer at INTAVIS (Tübingen, Germany) or ordered from JPT (PepSpots). […] The images were analyzed in Fiji (ImageJ2 version 2.9.0).

T1 sequence (Q9Y2K6 4-99): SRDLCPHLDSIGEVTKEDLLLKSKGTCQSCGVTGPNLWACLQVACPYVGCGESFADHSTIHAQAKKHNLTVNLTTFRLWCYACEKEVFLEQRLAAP

Turning to ESYT2, the log2_FC in assay [1] (IP-MS, FLAG-USP33 UBP mutant vs EV, comparison USP33_E86K_D90R/EV, Limma) was found to be 1.582; in assay [1] (IP-MS, FLAG-USP33 vs EV, comparison USP33_wt/EV, Limma) it was 1.824; in assay [1] (Table S7c USP33 MS_and_motif, bait USP33), 1.824; in assay [2], 1.764.

For TQNLEDREVLNGVQTE [PARD3B], the “binding in peptide SPOT array, USP20 versus USP33 zf-UBP” value in assay [3] is recorded as “only bound to USP20”.
